Reference: paper PMC4071600, “Amino Alcohols from the Ascidian Pseudodistoma sp” (Marine Drugs, 2014)

Biological target: T1, Na^+/K^+-ATPase
T1 construct: gene ATP1A1; with Sodium/potassium-transporting ATPase subunit beta-1
Test: Na+/K+-ATPase inhibition assay (by reference)
Format: biochemical
Text: Na+/K+-ATPase inhibition assay (by reference) on Na^+/K^+-ATPase

IC50 [µM]	SMILES
> 200	CC/C=C\C/C=C\CC/C=C/C=C/[C@H](O)[C@H](C)NCC(=O)O [compound 7, Pseudoaminol G]
190	CCCCCCCC/C=C/C[C@H](O)CN [compound 4, Pseudoaminol D]
62	CCCCCCCCC/C=C/[C@H](O)[C@H](C)N [compound 1, (E)-2-aminotetradec-4-en-3-ol]
78.4	CCCCCCCC/C=C/C[C@H](O)[C@H](C)N [compound 2, Pseudoaminol B]
108	CCCCCCCCCCC[C@H](OC(=O)c1ccccc1)[C@H](C)NC(=O)c1ccccc1 [compound 12, Compound 12]
101	CC/C=C\C/C=C\CC/C=C/C=C/[C@H](O)[C@H](C)N [compound 5, Pseudoaminol E]
46.8	CCCCCCCCCCC[C@H](O)[C@H](C)N [compound 9, Compound 9]
71.4	CCCCCCCCC/C=C/[C@@H]1OC(=O)N[C@H]1C [compound 8, Compound 8]
> 200	CCCCCCCCC/C=C/[C@H](O)[C@H](C)NCC(=O)O [compound 6, Pseudoaminol F]
> 200	CCCCCCC/C=C/C=C/[C@H](O)[C@H](C)N [compound 3, Pseudoaminol C]
118	CCCCCCCCCCC[C@H](O)[C@H](C)NC(C)=O [compound 10, Compound 10]
130	CCCCCCCCCCC[C@H](O)CN [compound 13, Compound 13]
> 200	CCCCCCCCCCC[C@H](O)CNC(C)=O [compound 14, Compound 14]
